In brackets after ≈: the same amount, converted by molar mass. Activity calls are given as the source filed them. The rule behind the calls is not given here.
How the values were obtained:
[1] = test system: NCI/ADR-RES; assay: Cytotoxicity against human NCI/ADR-RES cells at 5 ug/ml after 2 to 3 days by MTT assay; assay type: functional, cell-based
[2] = test system: PANC-1; assay: Cytotoxicity against human PANC1 cells at 5 ug/ml after 2 to 3 days by MTT assay; assay type: functional, cell-based
[3] = test system: Staphylococcus aureus; assay: Antimicrobial activity against methicillin-resistant Staphylococcus aureus by broth microdilution method; assay type: functional
[4] = test system: Candida albicans; assay: Antimicrobial activity against Candida albicans by broth microdilution method; assay type: functional
[5] = test system: Candida albicans; assay: Antimicrobial activity against Candida albicans up to 50 ug/ml by broth microdilution method; assay type: functional, organism-based
[6] = test system: Staphylococcus aureus; assay: Antimicrobial activity against methicillin-resistant Staphylococcus aureus up to 50 ug/ml by broth microdilution method; assay type: functional, organism-based

Structure (SMILES): Oc1cc2[nH]c3ccc4c5ccc(Br)cc5[nH]c4c3c2cc1O
- Activity [1]: inactive
- Activity [2]: inactive
- MIC [3]: 50 µg/mL (≈ 136 µM)
- MIC [4]: 25 µg/mL (≈ 68.1 µM)

Structure (SMILES): O=S(=O)(O)Oc1cc2[nH]c3ccc4c5ccc(Br)cc5[nH]c4c3c2cc1O
- Activity [1]: inactive
- Activity [2]: inactive
- growth inhibition (GI) [5]: inactive
- growth inhibition (GI) [6]: inactive

From ChEMBL document CHEMBL2429719, “Indolo[3,2-a]carbazoles from a deep-water sponge of the genus Asteropus” (2013)
